Usually inhibition stands for the share of the control response that was lost under treatment. A word on the Ki: it is the equilibrium dissociation constant of an inhibitor or competing ligand from its target. High values mean a looser hold on the target, low ones a stronger hold on the target.

The subject of one experiment is ZDF fa/fa rats. In words: Oral glucose tolerance test (OGTT). It is filed as in vivo, rat. The settings on record: 5 mg/kg i.v. at −270 and −30 min, 2 g/kg oral glucose. The protocol:
Test compound was administrated in 10-11 weeks old ZDF rats at 5 mg/kg i.v. at −270 and −30 min. At 0 min 2 g/kg oral glucose load was given and blood samples were collected at 15 min intervals to determine the blood glucose levels.
For the OGTT male ZDF fa/fa rats (Charles River, USA), 10-11 weeks old, were used. After 15 h fasting the animals were dosed intravenously with 5 mg/kg test compound in dosing vehicle, or with dosing vehicle (10% DMSO, 90% PEG-400) only at −270 and −30 min. At 0 min the rats were given 2 g/kg glucose by oral gavage. Plasma samples were taken before and every 15 min after the OGTT for determination of blood glucose.

A further experiment concerns CK2. Description: Protein kinase panel selectivity screen, CK2. It is filed as biochemical. The settings on record: 1 μM compound; [ATP] 5 μM. The protocol:
(§1) The names of the 29 kinases comprising the selectivity screen, as well as the ATP concentrations used in each kinase case, are given in Table 5. The kinase assays were carried out as described previously.
(§2) Compound XIV at a concentration of 1 μM was screened in the 29-kinase panel (Dundee University) and the results are shown bellow in Table 6.

A further experiment has as its target T1, PHK (Oryctolagus cuniculus, UniProt P00518).
T1 construct: Dundee University (screening panel)
In words: Protein kinase panel selectivity screen, PHK. It is filed as biochemical. The settings on record: 1 μM compound; [ATP] 20 μM. The method, then: as §1, §2

The next experiment concerns the target T2, SAPK4/p38d (Homo sapiens, UniProt O15264).
T2 construct: Dundee University (panel)
In words: Protein kinase panel selectivity screen, SAPK4/p38d. It counts as biochemical. The settings on record: 1 μM compound. The protocol:
as §1, §2

The target of the next experiment is T3, CDK2/cyclin E (Homo sapiens, UniProt P24941).
T3 construct: His6 (N); made in house; host or cells: Sf9 insect cells (baculovirus)
In words: CDK/cyclin kinase assay, CDK2/cyclin E. It counts as biochemical. The protocol:
(§3) CDK4/cyclin D1, CDK1/cyclin B, CDK2/cyclin E, CDK2/cyclin A, CDK9/cyclin T1 and CDK7/cyclin H, all with a His6 tag on the N-terminus, were expressed in Sf9 insect cells using an appropriate baculovirus construct. Sf9 culture (1.6×10^6 cells/mL) was infected (MOI of 3) for two days. The cells were harvested by low speed centrifugation and the protein was purified from the insect cell pellet by metal affinity chromatography. In short: the insect cell pellet was lysed in Buffer A (10 mM Tris-HCl pH 8.0, 150 mM NaCl, 0.02% NP-40, 5 mM β-mercaptoethanol, 20 mM NaF, 1 mM Na3VO4, and Sigma Protease Inhibitor Cocktail) by sonication. The soluble fraction was cleared by centrifugation and loaded onto Ni-NTA-Agarose (Qiagen). Non-bound protein was washed off with 300 mM NaCl, 5-15 mM imidazole in buffer A and the bound protein was eluted with buffer A supplemented with 250 mM imidazole. The purified proteins were extensively dialyzed against storage buffer (20 mM HEPES pH 7.4, 50 mM NaCl, 2 mM DTT, 1 mM EDTA, 1 mM EGTA, 0.02% NP-40, 10% v/v glycerol) and stored at −70° C.
(§4) Compounds were investigated for their CDK2/cyclin E, CDK2/cyclin A, CDK1/cyclin B, and CDK4/cyclin D1 inhibitory activity. His6-tagged recombinant human cyclin-dependent kinases CDK1/cyclin B1, CDK2/cyclin E, CDK2/cyclin A, and CDK4 were expressed in sf9 insect cells using a baculovirus expression system. Recombinant cyclin D1 was expressed in E. coli. Proteins were purified by metal chelate affinity chromatography to greater than 90% homogeneity. Kinase assays were performed in 96-well plates using recombinant CDK/cyclins. Assays were performed in assay buffer (25 mM β-glycerophosphate, 20 mM MOPS, 5 mM EGTA, 1 mM DTT, 1 mM […], pH 7.4), into which were added 2-4 μg of active enzyme with appropriate substrates (purified histone H1 for CDK1 and CDK2, recombinant GST-retinoblastoma protein (residues 773-928) for CDK4). The reaction was initiated by addition of Mg/ATP mix (15 mM MgCl2+100 μM ATP with 30-50 kBq per well of [γ-^32P]-ATP) and mixtures incubated for 10-45 min, as required, at 30° C. Reactions were stopped on ice, followed by filtration through p81 or GF/C filterplates (for CDK4) (Whatman Polyfiltronics, Kent, UK). After washing 3 times with 75 mM aq orthophosphoric acid, plates were dried, scintillant added and incorporated radioactivity measured in a scintillation counter (TopCount, Packard Instruments, Pangbourne, Berks, UK). Compounds for kinase assays were made up as 10 mM stocks in DMSO and diluted into 10% DMSO in assay buffer. Data was analysed using curve-fitting software (GraphPad Prism version 3.00 for Windows, GraphPad Software, San Diego Calif. USA) to determine IC50 values (concentration of test compound which inhibits kinase activity by 50%).

A further experiment concerns the target T4, CDK9/cyclin T1 (Homo sapiens, UniProt P50750).
T4 construct: His6 (N); made in house; host or cells: Sf9 insect cells (baculovirus)
Description: CDK9/cyclin T1 inhibition constant. It counts as biochemical. The method, then:
as §3
Intrinsic inhibition constants (Ki) for example compound XIV against a number of Ser/Thr kinases were determined and are summarized in Table 3.

The target of a further experiment is T5, CDK2/cyclin A (Homo sapiens, UniProt P24941).
T5 construct: His6 (N); made in house; host or cells: Sf9 insect cells (baculovirus)
Description: CDK/cyclin kinase assay, CDK2/cyclin A. It counts as biochemical. The protocol:
as §3, §4

In a further experiment the target is T6, SAPK2b/p38b2 (Homo sapiens, UniProt Q15759).
T6 construct: Dundee University (panel)
Description: Protein kinase panel selectivity screen, SAPK2b/p38b2. The settings on record: 1 μM compound; [ATP] 20 μM. It counts as biochemical. The method, then: as §1, §2

For the next experiment, the target named is T7, MAPKAP-K2 (Homo sapiens, UniProt P49137).
T7 construct: Dundee University (panel)
Description: Protein kinase panel selectivity screen, MAPKAP-K2. The settings on record: 1 μM compound; [ATP] 20 μM. It counts as biochemical. The method, then:
as §1, §2

The next experiment concerns the target T8, MSK1 (Homo sapiens, UniProt O75582).
T8 construct: Dundee University (panel)
In words: Protein kinase panel selectivity screen, MSK1. It counts as biochemical. The settings on record: 1 μM compound; [ATP] 20 μM. The method, then:
as §1, §2

Where only a bound is given, the exact number is not on record here.

T4 sequence (P50750 whole entry, species assumed): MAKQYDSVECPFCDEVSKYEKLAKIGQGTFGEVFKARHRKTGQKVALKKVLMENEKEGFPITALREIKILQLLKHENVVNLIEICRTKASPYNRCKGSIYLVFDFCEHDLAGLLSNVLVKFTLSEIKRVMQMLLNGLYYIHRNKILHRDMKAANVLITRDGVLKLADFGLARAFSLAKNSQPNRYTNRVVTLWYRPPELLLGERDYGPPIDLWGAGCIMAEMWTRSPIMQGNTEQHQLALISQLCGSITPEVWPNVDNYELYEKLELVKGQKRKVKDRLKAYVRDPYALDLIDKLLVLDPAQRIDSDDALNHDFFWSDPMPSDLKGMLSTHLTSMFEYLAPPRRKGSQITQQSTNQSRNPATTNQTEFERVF
T4 sequence (O60563 whole entry partner, species assumed): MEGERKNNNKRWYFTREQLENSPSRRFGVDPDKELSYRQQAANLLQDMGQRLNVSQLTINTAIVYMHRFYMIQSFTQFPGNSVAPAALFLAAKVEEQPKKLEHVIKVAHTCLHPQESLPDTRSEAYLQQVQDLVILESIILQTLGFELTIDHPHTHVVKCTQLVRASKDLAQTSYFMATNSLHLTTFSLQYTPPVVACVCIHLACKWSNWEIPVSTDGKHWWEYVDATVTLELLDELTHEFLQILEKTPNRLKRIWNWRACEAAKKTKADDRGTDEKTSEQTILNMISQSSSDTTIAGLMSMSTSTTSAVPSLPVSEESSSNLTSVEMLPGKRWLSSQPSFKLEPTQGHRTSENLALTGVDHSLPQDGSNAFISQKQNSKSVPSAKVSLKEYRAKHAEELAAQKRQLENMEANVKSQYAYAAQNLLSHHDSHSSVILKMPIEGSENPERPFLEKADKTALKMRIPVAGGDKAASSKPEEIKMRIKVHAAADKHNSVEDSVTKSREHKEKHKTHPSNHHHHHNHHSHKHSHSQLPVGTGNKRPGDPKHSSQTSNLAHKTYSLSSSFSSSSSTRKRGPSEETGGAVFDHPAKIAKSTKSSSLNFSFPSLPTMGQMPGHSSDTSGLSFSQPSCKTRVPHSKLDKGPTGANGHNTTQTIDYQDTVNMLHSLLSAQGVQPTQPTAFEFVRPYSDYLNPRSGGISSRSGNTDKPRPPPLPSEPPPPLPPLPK
T2 sequence (O15264 whole entry): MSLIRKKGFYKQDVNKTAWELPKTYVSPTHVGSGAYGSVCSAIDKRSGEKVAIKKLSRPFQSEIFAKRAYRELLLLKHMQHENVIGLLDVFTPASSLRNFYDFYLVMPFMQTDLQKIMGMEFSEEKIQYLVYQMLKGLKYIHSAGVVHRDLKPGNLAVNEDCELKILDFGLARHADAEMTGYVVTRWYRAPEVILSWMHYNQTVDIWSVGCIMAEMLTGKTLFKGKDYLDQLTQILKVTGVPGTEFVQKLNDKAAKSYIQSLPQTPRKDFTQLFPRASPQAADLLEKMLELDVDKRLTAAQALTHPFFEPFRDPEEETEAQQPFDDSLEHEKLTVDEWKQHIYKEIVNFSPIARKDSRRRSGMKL
T8 sequence (O75582 whole entry, species assumed): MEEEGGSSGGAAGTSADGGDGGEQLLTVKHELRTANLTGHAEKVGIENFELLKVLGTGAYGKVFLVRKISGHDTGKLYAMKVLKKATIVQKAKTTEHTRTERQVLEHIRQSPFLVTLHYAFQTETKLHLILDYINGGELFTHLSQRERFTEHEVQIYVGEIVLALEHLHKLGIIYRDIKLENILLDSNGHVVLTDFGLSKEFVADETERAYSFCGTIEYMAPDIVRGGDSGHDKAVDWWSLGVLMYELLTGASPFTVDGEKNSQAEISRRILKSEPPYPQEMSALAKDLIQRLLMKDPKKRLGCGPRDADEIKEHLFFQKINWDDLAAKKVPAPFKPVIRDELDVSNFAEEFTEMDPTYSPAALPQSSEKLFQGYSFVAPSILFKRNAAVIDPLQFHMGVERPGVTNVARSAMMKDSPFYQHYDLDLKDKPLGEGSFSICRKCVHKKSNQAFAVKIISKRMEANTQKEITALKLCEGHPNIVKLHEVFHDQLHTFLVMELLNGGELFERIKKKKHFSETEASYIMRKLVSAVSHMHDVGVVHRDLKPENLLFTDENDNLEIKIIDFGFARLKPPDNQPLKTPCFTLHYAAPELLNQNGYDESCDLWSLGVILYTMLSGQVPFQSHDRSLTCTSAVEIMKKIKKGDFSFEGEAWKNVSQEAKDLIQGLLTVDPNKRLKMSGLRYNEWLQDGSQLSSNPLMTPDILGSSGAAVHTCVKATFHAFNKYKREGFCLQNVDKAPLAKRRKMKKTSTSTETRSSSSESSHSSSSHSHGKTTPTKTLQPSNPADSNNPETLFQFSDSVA
T6 sequence (Q15759 whole entry): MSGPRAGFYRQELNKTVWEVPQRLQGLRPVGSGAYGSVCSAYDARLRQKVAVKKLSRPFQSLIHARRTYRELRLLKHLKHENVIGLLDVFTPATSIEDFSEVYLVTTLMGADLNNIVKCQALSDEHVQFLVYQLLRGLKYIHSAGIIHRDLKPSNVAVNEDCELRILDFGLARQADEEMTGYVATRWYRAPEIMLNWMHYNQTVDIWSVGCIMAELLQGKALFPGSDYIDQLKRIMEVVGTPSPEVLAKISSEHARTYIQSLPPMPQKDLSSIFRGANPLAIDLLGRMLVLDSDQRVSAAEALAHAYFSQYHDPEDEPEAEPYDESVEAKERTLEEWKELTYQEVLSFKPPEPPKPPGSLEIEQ
T7 sequence (P49137 whole entry, species assumed): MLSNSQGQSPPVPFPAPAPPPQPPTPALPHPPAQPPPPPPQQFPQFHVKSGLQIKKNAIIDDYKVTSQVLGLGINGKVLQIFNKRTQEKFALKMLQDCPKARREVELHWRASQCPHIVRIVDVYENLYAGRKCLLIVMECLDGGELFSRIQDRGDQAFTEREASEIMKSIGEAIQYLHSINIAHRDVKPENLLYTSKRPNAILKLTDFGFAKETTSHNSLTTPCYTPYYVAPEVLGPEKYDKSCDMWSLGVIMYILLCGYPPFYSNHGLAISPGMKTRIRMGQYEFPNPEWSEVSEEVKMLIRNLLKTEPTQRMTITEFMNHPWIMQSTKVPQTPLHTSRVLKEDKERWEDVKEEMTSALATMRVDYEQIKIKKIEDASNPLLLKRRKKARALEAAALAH

As to `Clc1ccc(Nc2nccc(-c3nccs3)n2)cn1` [Compound XIV, (6-Chloro-pyridin-3-yl)-(4-thiazol-2-yl-pyrimidin-2-yl)-amine], the “Decrease of absolute AUC level (blood glucose)” value in the experiment on ZDF fa/fa rats came out at 29%. The “Decrease of reactive AUC level (blood glucose)” value in the experiment on ZDF fa/fa rats stood at 44%. Further, the Glucose tolerance result in the experiment on ZDF fa/fa rats is on record as “improved the glucose tolerance in ZDF rats significantly”. The “% Activity CK2” value with CK2 came out at 84 ± 1%. Further, the activity at 1 µM at PHK was found to be 120 ± 7%; at SAPK4/p38d ([ATP] 5 μM) it was 91 ± 9%; at SAPK2b/p38b2 it was 92 ± 4%; at MAPKAP-K2, 86 ± 7%; on MSK1 it was 90 ± 6%. Also, the inhibition at 1 µM against SAPK4/p38d is ~40%. In addition, the Ki at CDK2/cyclin E was 5.5 µM; at CDK9/cyclin T1 it was 0.5 µM; on CDK2/cyclin A, > 50 µM. Also, on CDK2/cyclin E, the “Selectivity IC50 (CDK2/E)/IC50 (GSK3β)” value came out at 63. Besides, the “Fold selectivity for GSK3 over CDK2/cyclin E” value on CDK2/cyclin E (from Ki) turned out to be 345 fold. Further, the values for the IC50 on CDK2/cyclin E (read-out: Kinase inhibition IC50 CDK2/E) and at CDK2/cyclin A (read-out: Kinase inhibition IC50 CDK2/A) were 11 µM and > 50 µM, respectively. The “Fold selectivity for GSK3 over CDK9/cyclin T1” value on CDK9/cyclin T1 (from Ki) came out at 31 fold. On CDK2/cyclin A (from Ki), the “Fold selectivity for GSK3 over CDK2/cyclin A” value is given as >3,125 fold.

Values taken from patent publication US20080318954A1, “Compounds” (Cyclacel Limited, priority 2004, published 2008).
